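Protocol summary: plate cells (96-well), add compound at 5 concentrations, incubate 48 h, interpolate endpoints linearly. At the TGI there is no net growth.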
Key:
Assay in all cases: growth of human tumour cells (NCI), 48 h
[1] = test system: NCI-H460 lung
[2] = test system: SN12C renal
[3] = test system: SK-MEL-2 melanoma
[4] = test system: OVCAR-5 ovarian
[5] = test system: UO-31 renal
[6] = test system: RPMI-8226 leukemia
[7] = test system: HL-60(TB) leukemia
[8] = test system: COLO 205 colon
[9] = test system: SR leukemia
[10] = test system: U251 CNS
[11] = test system: RXF-631 renal
[12] = test system: DMS 273 small cell lung
[13] = test system: M19-MEL melanoma
[14] = test system: K-562 leukemia
[15] = test system: MALME-3M melanoma
[16] = test system: HOP-18 NSCLC
[17] = test system: HCC-2998 colon
[18] = test system: HT29 colon
[19] = test system: A549 NSCLC
[20] = test system: CAKI-1 renal
[21] = test system: NCI-H522 lung
[22] = test system: IGROV1 ovarian
[23] = test system: HOP-62 NSCLC
[24] = test system: XF 498 CNS
[25] = test system: UACC-62 melanoma
[26] = test system: ACHN renal
[27] = test system: KM12 colon
[28] = test system: KM20L2 colon
[29] = test system: SK-OV-3 ovarian
[30] = test system: HCT-116 colon
[31] = test system: M14 melanoma
[32] = test system: RXF 393 renal
[33] = test system: SK-MEL-5 melanoma
[34] = test system: SK-MEL-28 melanoma
[35] = test system: A498 renal
[36] = test system: SNB-19 CNS
[37] = test system: DMS 114 small cell lung
[38] = test system: 786-0 renal
[39] = test system: SF-295 CNS
[40] = test system: SF-539 CNS
[41] = test system: OVCAR-8 ovarian
[42] = test system: SNB-78 CNS
[43] = test system: SNB-75 CNS
[44] = test system: TK-10 renal
[45] = test system: LXFL 529 NSCLC
[46] = test system: CCRF-CEM leukemia
[47] = test system: OVCAR-3 ovarian
[48] = test system: HOP-92 NSCLC
[49] = test system: LOX IMVI melanoma
[50] = test system: HCT-15 colon
[51] = test system: NCI-H23 lung
[52] = test system: NCI-H226 lung
[53] = test system: MOLT-4 leukemia
[54] = test system: OVCAR-4 ovarian
[55] = test system: DLD-1 colon
[56] = test system: EKVX NSCLC
[57] = test system: UACC-257 melanoma
[58] = test system: SF-268 CNS
[59] = test system: SW-620 colon

For `CCOC(OC1=CCCC1)C(C)[Se]c1ccccc1` (stereo unspecified), the TGI [1] was 40.1 µM, the TGI [2] was > 100 µM and the TGI [3] was > 100 µM. For the same molecule, the TGI [4] was 60.6 µM, the TGI [5] was > 100 µM and the TGI [6] was 43.7 µM. The TGI [7] was 42.9 µM, the TGI [8] was 39.9 µM and the TGI [9] was 41.2 µM. The TGI [10] was 83 µM, the TGI [11] was 41.4 µM and the TGI [12] was 31.3 µM. The TGI [13] was 66.3 µM, the TGI [14] was > 100 µM and the TGI [15] was 88.4 µM. The TGI [16] was > 100 µM, the TGI [17] was > 100 µM and the TGI [18] was 44.4 µM. For the same molecule, the TGI [19] was > 100 µM, the TGI [20] was > 100 µM and the TGI [21] was 35.9 µM. For the same molecule, the TGI [22] was > 100 µM, the TGI [23] was > 100 µM and the TGI [24] was 45.1 µM. The TGI [25] was > 100 µM, the TGI [26] was > 100 µM and the TGI [27] was > 100 µM. For the same molecule, the TGI [28] was 79.6 µM, the TGI [29] was > 100 µM and the TGI [30] was 45.1 µM. For the same molecule, the TGI [31] was > 100 µM, the TGI [32] was 72.8 µM and the TGI [33] was 52.4 µM. For the same molecule, the TGI [34] was > 100 µM, the TGI [35] was > 100 µM and the TGI [36] was > 100 µM. The TGI [37] was 20.4 µM, the TGI [38] was 41.8 µM and the TGI [39] was > 100 µM. The TGI [40] was 71.7 µM, the TGI [41] was > 100 µM and the TGI [42] was > 100 µM. For the same molecule, the TGI [43] was 90.4 µM, the TGI [44] was > 100 µM and the TGI [45] was > 100 µM. The TGI [46] was 46.6 µM, the TGI [47] was > 100 µM and the TGI [48] was 81.4 µM. The TGI [49] was 28.9 µM, the TGI [50] was 32 µM and the TGI [51] was 62.3 µM. For the same molecule, the TGI [52] was > 100 µM, the TGI [53] was 64.6 µM and the TGI [54] was > 100 µM. For the same molecule, the TGI [55] was 48.4 µM, the TGI [56] was > 100 µM and the TGI [57] was > 100 µM. For the same molecule, the TGI [58] was 59 µM.
With `CCCCCCCCCC1CC(=O)Oc2cccc(O)c21` (stereo unspecified) the TGI [1] was 30.7 µM, the TGI [2] was 15.7 µM and the TGI [3] was > 72.7 µM. The TGI [4] was > 85.4 µM, the TGI [5] was 75.1 µM and the TGI [6] was 83.4 µM. It also gave a TGI [7] of 62 µM, a TGI [8] of 31.3 µM and a TGI [9] of 64.2 µM. The TGI [10] was 25.4 µM, the TGI [11] was 20.2 µM and the TGI [12] was 19.3 µM. For the same molecule, the TGI [13] was > 96.7 µM, the TGI [14] was 66.3 µM and the TGI [15] was 38.1 µM. The TGI [16] was 97.3 µM, the TGI [17] was > 20.2 µM and the TGI [18] was 53.8 µM. For the same molecule, the TGI [19] was 83.4 µM, the TGI [20] was 76.3 µM and the TGI [21] was 45.3 µM. For the same molecule, the TGI [22] was 55.2 µM, the TGI [23] was 80.9 µM and the TGI [24] was 49.7 µM. The TGI [25] was 98.3 µM, the TGI [26] was > 84.8 µM and the TGI [27] was 39.1 µM. For the same molecule, the TGI [28] was > 100 µM, the TGI [29] was > 92.2 µM and the TGI [30] was > 100 µM. For the same molecule, the TGI [31] was 49.6 µM, the TGI [32] was 46.6 µM and the TGI [33] was 35.2 µM. The TGI [34] was > 70.9 µM, the TGI [35] was 42 µM and the TGI [36] was > 88.2 µM. For the same molecule, the TGI [37] was 45.7 µM, the TGI [38] was 30.6 µM and the TGI [39] was > 83.3 µM. For the same molecule, the TGI [40] was 71.7 µM, the TGI [41] was > 81.2 µM and the TGI [42] was > 100 µM. For the same molecule, the TGI [43] was > 100 µM, the TGI [44] was > 100 µM and the TGI [59] was > 69.4 µM. It also gave a TGI [45] of 63.2 µM, a TGI [46] of 77.1 µM and a TGI [47] of 24.9 µM. The TGI [48] was > 70.3 µM, the TGI [49] was 35.6 µM and the TGI [50] was 57.1 µM. For the same molecule, the TGI [51] was 84.2 µM, the TGI [52] was 99.5 µM and the TGI [53] was > 85.3 µM. The TGI [54] was > 78.3 µM, the TGI [55] was > 71 µM and the TGI [56] was > 84.6 µM. For the same molecule, the TGI [57] was > 100 µM and the TGI [58] was > 100 µM.
`O=C1C=Cc2c(-c3ccccc3)oc3cccc1c23` was tested, and the TGI [1] was > 80.5 µM, the TGI [2] was > 100 µM and the TGI [3] was > 100 µM. The TGI [4] was > 96 µM, the TGI [5] was > 82.6 µM and the TGI [6] was 19 µM. The TGI [7] was 27.9 µM, the TGI [8] was > 82.1 µM and the TGI [9] was > 54.4 µM. For the same molecule, the TGI [10] was > 100 µM, the TGI [11] was > 100 µM and the TGI [12] was > 100 µM. For the same molecule, the TGI [13] was > 100 µM, the TGI [14] was 48.1 µM and the TGI [15] was > 100 µM. For the same molecule, the TGI [16] was > 100 µM, the TGI [17] was > 100 µM and the TGI [18] was > 100 µM. The TGI [19] was > 100 µM, the TGI [20] was 48.5 µM and the TGI [21] was > 81 µM. For the same molecule, the TGI [22] was > 100 µM, the TGI [23] was > 100 µM and the TGI [24] was 67.7 µM. For the same molecule, the TGI [25] was 99.1 µM, the TGI [26] was > 76.6 µM and the TGI [27] was > 100 µM. For the same molecule, the TGI [28] was > 100 µM, the TGI [29] was > 80.2 µM and the TGI [30] was > 73.1 µM. The TGI [31] was > 100 µM, the TGI [32] was > 69 µM and the TGI [33] was > 100 µM. For the same molecule, the TGI [34] was > 100 µM, the TGI [35] was > 100 µM and the TGI [36] was > 100 µM. For the same molecule, the TGI [37] was 89 µM, the TGI [38] was > 100 µM and the TGI [39] was > 100 µM. For the same molecule, the TGI [40] was > 100 µM, the TGI [41] was > 100 µM and the TGI [42] was > 100 µM. For the same molecule, the TGI [43] was 81.8 µM, the TGI [44] was > 92.2 µM and the TGI [59] was > 100 µM. For the same molecule, the TGI [45] was > 100 µM, the TGI [46] was 64.6 µM and the TGI [47] was > 100 µM. For the same molecule, the TGI [48] was 73.2 µM, the TGI [49] was > 52.7 µM and the TGI [50] was > 75.4 µM. The TGI [51] was 62.9 µM, the TGI [52] was > 70.9 µM and the TGI [53] was 19.5 µM. For the same molecule, the TGI [54] was > 100 µM, the TGI [55] was > 100 µM and the TGI [56] was 15.5 µM. For the same molecule, the TGI [57] was > 100 µM and the TGI [58] was > 100 µM.

— PubChem BioAssay (NCI)
